Source: patent publication US11518758B2, “Heteroarylaminopyrimidine amide autophagy inhibitors and methods of use thereof” (Deciphera Pharmaceuticals, LLC, priority 2019, dated 2022)

target: T1, ULK2 kinase (Homo sapiens, UniProt Q8IYT8); assay: Biochemical assay for ULK2 (coupled pyruvate kinase/lactate dehydrogenase assay); settings: 9.7 nM ULK2 (Eurofins), myelin basic protein, 1 mM ATP; read-out: ULK2.2
T1 construct: purchased Eurofins 14-772
Method: Example 176. Biochemical Assay for ULK2
Activity of ULK2 kinase was determined spectroscopically using a coupled pyruvate kinase/lactate dehydrogenase assay that continuously monitors the ATP hydrolysis-dependent oxidation of NADH (e.g., Schindler et al. Science (2000) 289: 1938-1942). Assays were conducted in 384-well plates (100 uL final volume) using 9.7 nM ULK2 (Eurofins CAT #14-772), 0.25 mg/mL myelin basic protein, 1.5 units pyruvate kinase, 2.1 units lactate dehydrogenase, 1 mM phosphoenol pyruvate, 0.28 mM NADH and 1 mM ATP in assay buffer (100 mM Tris, pH 7.5, 15 mM MgCl2, 0.5 mM DTT, 0.1% octyl-glucoside, 0.002% (w/v) BSA, and 0.002% Triton X-100). Inhibition of ULK2 was measured by adding serial diluted test compound (final assay concentration of 1% DMSO). A decrease in absorption at 340 nm was monitored continuously for 6 hours at 30° C. on a multi-mode microplate reader (BioTek). The reaction rate was calculated using the 2-3 h time frame. The reaction rate at each concentration of compound was converted to percent inhibition using controls (i.e. reaction with no test compound and reaction with a known inhibitor) and IC50 values were calculated by fitting a four-parameter sigmoidal curve to the data using Prism (GraphPad software).

T1 sequence (Q8IYT8 with tags, fused parts or gaps): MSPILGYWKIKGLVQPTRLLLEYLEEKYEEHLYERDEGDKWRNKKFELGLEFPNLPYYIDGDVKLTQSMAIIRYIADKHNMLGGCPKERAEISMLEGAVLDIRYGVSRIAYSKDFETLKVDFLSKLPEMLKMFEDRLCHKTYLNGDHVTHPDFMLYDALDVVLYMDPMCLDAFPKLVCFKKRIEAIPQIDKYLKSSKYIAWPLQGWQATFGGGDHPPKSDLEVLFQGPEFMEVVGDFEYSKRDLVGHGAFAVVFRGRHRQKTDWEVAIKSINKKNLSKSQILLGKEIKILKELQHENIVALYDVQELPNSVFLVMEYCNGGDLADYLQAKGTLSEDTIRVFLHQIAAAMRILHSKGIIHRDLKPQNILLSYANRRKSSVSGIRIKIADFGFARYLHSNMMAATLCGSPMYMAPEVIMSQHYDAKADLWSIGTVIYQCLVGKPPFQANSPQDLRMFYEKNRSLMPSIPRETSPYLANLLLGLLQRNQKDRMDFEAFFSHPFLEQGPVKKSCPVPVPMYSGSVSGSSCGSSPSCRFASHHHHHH

Structure (SMILES)	IC50
Cc1nn(CCN(C)C)cc1Nc1ncc(C(F)(F)F)c(NCCCN2CCCCC2=O)n1 [Example 21]	100 to 500 nM
Cc1nn(C2CCN(C(C)C)CC2)cc1Nc1ncc(C(F)(F)F)c(NCCCN2CCCOCC2=O)n1 [Example 108]	> 500 nM
Cc1nn(C2CCN(C(C)C)CC2)cc1Nc1ncc(C(F)(F)F)c(NCCCN2CCCOC2=O)n1 [Example 68]	100 to 500 nM
Cc1nn(CCCN2CCOCC2)cc1Nc1ncc(C(F)(F)F)c(NCCCN2CCCCCC2=O)n1 [Example 100]	100 to 500 nM

Other lines, results leading:

IC50	Structure (SMILES)
100 to 500 nM	Cc1nn(C2CCN(C(C)C)CC2)cc1Nc1ncc(C(F)(F)F)c(NCCCN2CCCCC2=O)n1 [Example 15]
> 500 nM	CCN1CC[C@H](n2cc(Nc3ncc(Br)c(NCCCN4CCCCC4=O)n3)c(C)n2)C1 [Example 64]
100 to 500 nM	Cc1nn(C2CCN(C)CC2)cc1Nc1ncc(C(F)(F)F)c(NCCCN2CCOCCC2=O)n1 [Example 127]
100 to 500 nM	CCN1CCC(n2cc(Nc3ncc(C(F)(F)F)c(NCCCN4CCOCCC4=O)n3)c(C)n2)CC1 [Example 130]
100 to 500 nM	Cc1nn([C@H]2CCN(C)C2)cc1Nc1ncc(Br)c(NCCCN2CCCCC2=O)n1 [Example 61]
25 to 100 nM	Cc1nn(C2CCN(C)CC2)cc1Nc1ncc(C(F)(F)F)c(NCCCN2CCCOCC2=O)n1 [Example 102]

test system: phospho-Serine 318 ATG13 (pATG13) in HCT-116 cells; assay: pATG13 levels of mutant KRas HCT-116 cells after treatment with ULK inhibitors in combination with trametinib (ELISA); assay type: cell-based, human; settings: not given
Method: Example 179. pATG13 Levels of Mutant KRas HCT-116 Cells after Treatment with ULK Inhibitors in Combination with Trametinib
HCT-116 human colon cancer cells (10000 cells/well) were added to a 384-well tissue-culture treated plate in 50 μL of pre-warmed DMEM medium supplemented with 10% characterized fetal bovine serum (Invitrogen, Carlsbad, Calif.), 100 units/mL penicillin G, and 100 μg/mL streptomycin and allowed to grow overnight at 37° C., 5% CO2, and 95% humidity. The following day, 10 μL of media containing trametinib or DMSO as a control was added to wells. The final concentration of trametinib in wells was 250 nM. A dose response of a test compound (0.6 μL per well) was added. DMSO (0.6 μL) was added to control wells. The plate was briefly shaken to mix wells and then incubated at 37° C. overnight. The next day, the media was aspirated and cells were washed with Dulbecco's Phosphate Buffered Saline (Gibco). Cells were lysed using MPER lysis buffer (Pierce, Rockford, Ill.) containing Halt Phosphatase and Protease Inhibitors (Pierce, Rockford, Ill.) and Phosphatase inhibitor cocktail 2 (Sigma, St. Louis, Mo.) at 4° C. for 10 minutes with shaking.
Cellular levels of phospho-Serine 318 ATG13 (pATG13) were measured via an ELISA method. Total ATG13 Antibody (Cell Signaling Cat #13273) was used to coat the wells. The plate was incubated at 4° C. overnight and washed with ELISA wash buffer (Biolegend Cat #421601). The wells were then blocked with assay diluent (Biolegend Cat #421203) for 1 hour at room temperature. Plate wells were washed with ELISA wash buffer. Cell lysate was added to wells and incubated at room temperature for 2 hours. Plate wells were washed with ELISA wash buffer. Biotinylated pS318-ATG13 antibody (Rockland Immunochemicals Cat #600-401-C49) was diluted in assay diluent and added to each well and incubated at room temperature for 1 hour. Plate wells were washed with ELISA wash buffer. Streptavidin linked to horseradish peroxidase (Thermo Fisher Cat #21140) was diluted in assay diluent and added to each well and incubated at room temperature for 1 hour. Plate wells were washed with ELISA wash buffer. High sensitivity TMB substrate (Biolegend Cat #421101) was added to each well and incubated at room temperature for 20 minutes. The reaction was stopped with 2N Sulfuric Acid. The plate was analyzed at on a plate reader measuring absorbance at 450 nm and 540 nm (background). Signal was calculated by first subtracting the background absorbance at 540 nm from the absorbance at 450 nm for each well. Next, the background corrected absorbance at 450 nm from blank wells was subtracted from test wells. Data was compared to control wells to determine % ATG13 phosphorylation. GraphPad Prism was used to calculate IC50 values.

Structure (SMILES)	IC50
Cc1nn(CCN(C)C)cc1Nc1ncc(C(F)(F)F)c(NCCCN2CCCCC2=O)n1 [Example 21]	100 to 300 nM
Cc1nn(C2CCN(C(C)C)CC2)cc1Nc1ncc(C(F)(F)F)c(NCCCN2CCCOCC2=O)n1 [Example 108]	100 to 300 nM
Cc1nn(C2CCN(C(C)C)CC2)cc1Nc1ncc(C(F)(F)F)c(NCCCN2CCCOC2=O)n1 [Example 68]	10 to 100 nM
Cc1nn(CCCN2CCOCC2)cc1Nc1ncc(C(F)(F)F)c(NCCCN2CCCCCC2=O)n1 [Example 100]	100 to 300 nM

Results, then the compound that gave them:

IC50	Structure (SMILES)
10 to 100 nM	Cc1nn(C2CCN(C(C)C)CC2)cc1Nc1ncc(C(F)(F)F)c(NCCCN2CCCCC2=O)n1 [Example 15]
100 to 300 nM	Cc1nn(C2CCN(C)CC2)cc1Nc1ncc(C(F)(F)F)c(NCCCN2CCOCCC2=O)n1 [Example 127]
10 to 100 nM	CCN1CCC(n2cc(Nc3ncc(C(F)(F)F)c(NCCCN4CCOCCC4=O)n3)c(C)n2)CC1 [Example 130]
10 to 100 nM	Cc1nn([C@H]2CCN(C)C2)cc1Nc1ncc(Br)c(NCCCN2CCCCC2=O)n1 [Example 61]
10 to 100 nM	Cc1nn(C2CCN(C)CC2)cc1Nc1ncc(C(F)(F)F)c(NCCCN2CCCOCC2=O)n1 [Example 102]

target: T2, ULK1 kinase (Homo sapiens, UniProt O75385); assay: Biochemical assay for ULK1.2 (coupled pyruvate kinase/lactate dehydrogenase assay); settings: 19 nM ULK1 (Eurofins), myelin basic protein, 1 mM ATP
T2 construct: purchased Eurofins 14-959
T2 sequence (O75385 with tags, fused parts or gaps): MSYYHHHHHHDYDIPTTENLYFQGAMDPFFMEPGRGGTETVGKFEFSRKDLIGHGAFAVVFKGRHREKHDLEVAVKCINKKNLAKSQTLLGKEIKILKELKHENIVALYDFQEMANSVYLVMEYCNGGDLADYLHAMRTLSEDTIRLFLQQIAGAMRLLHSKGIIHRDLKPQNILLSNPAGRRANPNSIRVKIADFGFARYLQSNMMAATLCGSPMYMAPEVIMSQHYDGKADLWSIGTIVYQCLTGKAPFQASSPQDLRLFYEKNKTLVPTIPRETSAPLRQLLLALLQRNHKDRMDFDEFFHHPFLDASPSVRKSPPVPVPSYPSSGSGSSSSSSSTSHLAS
Method in brief: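 NADH-coupled PK/LDH read-out at 340 nm, run with 19 nM ULK1, 0.25 mg/mL myelin basic protein and 1 mM ATP. Buffer was 100 mM Tris pH 7.5 with 15 mM MgCl2 and 1% DMSO final. Monitoring was continuous for 6 hours at 30° C; rates from the 2-3 h window were converted to percent inhibition and fitted to a four-parameter curve for IC50.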

Structure (SMILES)	IC50
Cc1nn(CCN(C)C)cc1Nc1ncc(C(F)(F)F)c(NCCCN2CCCCC2=O)n1 [Example 21]	25 to 100 nM
Cc1nn(C2CCN(C(C)C)CC2)cc1Nc1ncc(C(F)(F)F)c(NCCCN2CCCOCC2=O)n1 [Example 108]	25 to 100 nM
Cc1nn(C2CCN(C(C)C)CC2)cc1Nc1ncc(C(F)(F)F)c(NCCCN2CCCOC2=O)n1 [Example 68]	25 to 100 nM
Cc1nn(CCCN2CCOCC2)cc1Nc1ncc(C(F)(F)F)c(NCCCN2CCCCCC2=O)n1 [Example 100]	25 to 100 nM

Results, then the compound that gave them:

IC50	Structure (SMILES)
25 to 100 nM	Cc1nn(C2CCN(C(C)C)CC2)cc1Nc1ncc(C(F)(F)F)c(NCCCN2CCCCC2=O)n1 [Example 15]
25 to 100 nM	CCN1CC[C@H](n2cc(Nc3ncc(Br)c(NCCCN4CCCCC4=O)n3)c(C)n2)C1 [Example 64]
1 to 25 nM	Cc1nn(C2CCN(C)CC2)cc1Nc1ncc(C(F)(F)F)c(NCCCN2CCOCCC2=O)n1 [Example 127]
25 to 100 nM	CCN1CCC(n2cc(Nc3ncc(C(F)(F)F)c(NCCCN4CCOCCC4=O)n3)c(C)n2)CC1 [Example 130]
25 to 100 nM	Cc1nn([C@H]2CCN(C)C2)cc1Nc1ncc(Br)c(NCCCN2CCCCC2=O)n1 [Example 61]
1 to 25 nM	Cc1nn(C2CCN(C)CC2)cc1Nc1ncc(C(F)(F)F)c(NCCCN2CCCOCC2=O)n1 [Example 102]
